Common to all, as to format: organism-based
Data set [1] relates to Mus musculus. Briefly: Toxicity in mice after 17-35 days at a dose of 400 mg/kg/day; 19/9. The note with it: in vivo.
Data set [2] deals with Mus musculus. The data set can be described thus: Toxicity in mice after 17-29 days at a dose of 80 mg/kg/day; 21/9.5. The note with it: in vivo.
In data set [3] the test system is Mus musculus. Briefly: Toxicity in mice after 35->45 days at a dose of 133 mg/kg/day; 45/9.5. The following applies: in vivo, 1080 h.
Data set [4] has as its system Mus musculus. The data set can be described thus: Toxicity in mice after 29->45 days at a dose of 60 mg/kg/day; 45/9. The note with it: in vivo, 1080 h.
In data set [5] the test system is Mus musculus. The data set can be described thus: Toxicity in mice after 8->45 days at a dose of 300 mg/kg/day; 45/9. The following applies: in vivo, 1080 h.
Data set [6] deals with Mus musculus. Briefly: Toxicity in mice after 7-14 days at a dose of 100 mg/kg/day; 11/9.5. The following applies: in vivo.
The test system of data set [7] is Mus musculus. The data set can be described thus: Toxicity in mice after 9-11 days at a dose of 200 mg/kg/day; 10/9.5. The following applies: in vivo.
The test system of data set [8] is Mus musculus. The data set can be described thus: Toxicity in mice after 11-12 days at a dose of 19 and 38 mg/kg/day; 11/9.5. The following applies: in vivo.
For data set [9], the system named is Mus musculus. The data set can be described thus: Toxicity in mice after 10 days at a dose of 95 and 190 mg/kg/day; 10/9.5. The note with it: in vivo, 240 h.
In data set [10] the test system is Mus musculus. The data set can be described thus: Toxicity in mice after 15-45 days at a dose of 60 mg/kg/day; 30/9. The note with it: in vivo.
Data set [11] has as its system Mus musculus. The data set can be described thus: Toxicity in mice after 14-45 days at a dose of 100 mg/kg/day; 37.5/9. The following applies: in vivo.
The subject of data set [12] is Mus musculus. Briefly: Toxicity in mice after 32->45 days at a dose of 400 mg/kg/day; 45/9. The following applies: in vivo, 1080 h.
The subject of data set [13] is Mus musculus. The data set can be described thus: Toxicity in mice after 12-13 days at a dose of 100 mg/kg/day; 12/8. The following applies: in vivo.
Data set [14] deals with Mus musculus. Briefly: Toxicity in mice after 7-8 days at a dose of 200 mg/kg/day; 8/9. The note with it: in vivo.
The subject of data set [15] is Mus musculus. Briefly: Toxicity in mice after 13-15 days at a dose of 60 mg/kg/day; 14/8.5. The following applies: in vivo.
The subject of data set [16] is Mus musculus. Briefly: Toxicity in mice after 15-18 days at a dose of 60 mg/kg/day; 15.5/8.5. The note with it: in vivo.
Data set [17] deals with Mus musculus. The data set can be described thus: Toxicity in mice after 17-21 days at a dose of 60 mg/kg/day; 21/8.5. The following applies: in vivo.
For data set [18], the system named is Mus musculus. The data set can be described thus: Toxicity in mice after 7 days at a dose of 200 mg/kg/day; 7/9. The following applies: in vivo, 168 h.
The test system of data set [19] is Mus musculus. The data set can be described thus: Toxicity in mice after 7-8 days at a dose of 100 mg/kg/day; 7/9. The following applies: in vivo.
Data set [20] has as its system Mus musculus. Briefly: Toxicity in mice after 9-12 days at a dose of 200 mg/kg/day; 10.5/9.5. The following applies: in vivo.

For `CCCCCCCCCCCCCCCC(=O)OC[C@@H](COP(=O)(O)OP(=O)(O)OC[C@H]1O[C@@H](n2ccc(N)nc2=O)[C@@H](O)[C@@H]1O)OC(=O)CCCCCCCCCCCCCCC`, the median survival time in data set [1] turned out to be 19 days; in [2], 21 days.

Regarding `CCCCCCCCCCCCCCCC(=O)OC[C@H](COP(=O)(O)OP(=O)(O)OC[C@H]1O[C@@H](n2ccc(N)nc2=O)[C@@H](O)[C@@H]1O)OC(=O)CCCCCCCCCCCCCCC`, the median survival time in data set [3], in [4] and in data set [5] was over 45 days each time.

Take `CCCCCCCCCCCCCCCC(=O)OC[C@H](COP(=O)(O)O)OC(=O)CCCCCCCCCCCCCCC.Nc1ccn([C@@H]2O[C@H](COP(=O)(O)O)[C@@H](O)[C@@H]2O)c(=O)n1`: the median survival time came out at 11 days in data set [6] and 10 days in data set [7].

On to `CCCCCCCCCCCCCCCC(=O)OC[C@@H](COP(=O)(O)O)OC(=O)CCCCCCCCCCCCCCC.Nc1ccn([C@@H]2O[C@H](COP(=O)(O)O)[C@@H](O)[C@@H]2O)c(=O)n1`, for which the median survival time in [8] was found to be 11 days; in data set [9], 10 days.

Turning to `CCCCCCCCCCCCCCCC(=O)OCC(COP(=O)(O)OP(=O)(O)OC[C@H]1O[C@@H](n2ccc(N)nc2=O)[C@@H](O)[C@@H]1O)OC(=O)CCCCCCCCCCCCCCC` (mixture of isomers), the median survival time is 30 days in data set [10], 37.5 days in data set [11] and over 45 days in [12].

Take `Nc1ccn([C@@H]2O[C@H](CO)[C@@H](O)[C@@H]2O)c(=O)n1` [CYTARABINE]: the median survival time in [13] is 12 days; in data set [14], 8 days; in data set [15], 14 days; in data set [16], 15.5 days; in data set [17], 21 days; in [18], 7 days. Also, the median survival time in data set [19] amounted to 7 days; in data set [20], 10.5 days.

The record behind these values is ChEMBL document CHEMBL1124302, “Nucleoside conjugates. 10. Synthesis and antitumor activity of 1-beta-D-arabinofuranosylcytosine 5'-diphosphate-1,2-dipalmitins” (J Med Chem, 1988).
